From PubChem BioAssay (NCI) come the findings set out here.

The structures appear in SMILES notation.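 48-hour exposure; five concentrations; linearly interpolated endpoints. At the TGI there is no net growth.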

What all share (experiment): NCI anticancer screen, dose series, 48 h
The test system of assay [1] is SK-MEL-28 melanoma.
Assay [2] has as its system IGROV1 ovarian.
In assay [3] the test system is SK-MEL-5 melanoma.
The test system of assay [4] is SR leukemia.
The test system of assay [5] is LOX IMVI melanoma.
The test system of assay [6] is UACC-257 melanoma.
Assay [7] concerns M14 melanoma.
Assay [8] relates to HT29 colon.
The subject of assay [9] is NCI-H460 lung.
In assay [10] the test system is SF-295 CNS.
The test system of assay [11] is K-562 leukemia.
The test system of assay [12] is KM12 colon.
For assay [13], the system named is EKVX NSCLC.
Assay [14] relates to HS 578T breast.
Assay [15] has as its system A549 NSCLC.
In assay [16] the test system is A498 renal.
Assay [17] relates to OVCAR-4 ovarian.
Assay [18] has as its system COLO 205 colon.
For assay [19], the system named is UO-31 renal.

Take `O=C(/C=C/c1ccc(OCc2ccccc2)cc1)NCc1ccc(C(=O)NCCc2c[nH]c3ccccc23)cc1`: the TGI in [1] was greater than 100 µM; in assay [2] it was 56.1 µM; in assay [3], greater than 58.6 µM; in [4], greater than 55.3 µM; in [5], greater than 100 µM; in assay [6], greater than 100 µM. In addition, the TGI in assay [7] is greater than 62 µM; in [8], greater than 56.6 µM; in assay [9], greater than 100 µM; in assay [10] it was 17.2 µM; in [11] it was greater than 100 µM; in assay [12] it was greater than 100 µM. For the same compound, the TGI in assay [13] was greater than 100 µM; in assay [14], 29.9 µM; in assay [15] it was 87.6 µM; in assay [16], greater than 100 µM; in assay [17], greater than 48.4 µM; in assay [18], greater than 100 µM. This compound returned a TGI in [19] greater than 100 µM.

Regarding `CN1CC(c2ccccc2)C(O)(C2(c3ccccc3)CN(C)CC(c3ccccc3)C2=O)C(c2ccccc2)C1` (stereo not drawn), the TGI in assay [1], in [2], in [3], in assay [4], in assay [5] and in assay [6] was greater than 100 µM in each case. Also, the TGI in [7], in assay [8], in assay [9], in assay [10], in assay [11] and in assay [12] was greater than 100 µM each time. The TGI was greater than 100 µM in assay [13]; 94.2 µM in [14]; greater than 100 µM in assay [15]; greater than 100 µM in [16]; greater than 100 µM in assay [17]; greater than 100 µM in assay [18]. The same compound registered a TGI in [19] greater than 100 µM.

On to `C=C1C(=O)O[C@H]2C1C[C@@H](O)/C(C)=C/CC[C@@]1(C)O[C@H]21` (stereo partly drawn), for which the TGI in assay [1] was 33.7 µM; in assay [2], greater than 43.8 µM; in assay [3], 49.1 µM; in [4] it was 44.9 µM; in assay [5] it was 26.6 µM; in [6] it was 46.8 µM. For the same compound, the TGI in assay [7] was 37.4 µM; in assay [8], greater than 57 µM; in assay [9], greater than 68.5 µM; in [10] it was greater than 100 µM; in [11], 28.8 µM; in assay [12], greater than 100 µM. The TGI in assay [13] was 38.9 µM; in assay [14], greater than 89.5 µM; in assay [15], greater than 91 µM; in assay [16] it was 63.1 µM; in assay [17], greater than 43.4 µM; in assay [18], greater than 36.9 µM. Also, in assay [19], the TGI is greater than 49.6 µM.

As to `CCCN(CCC)C(=S)N/N=C(/C)c1ccccc1O`, the TGI is greater than 100 µM in assay [1]; 19.3 µM in assay [2]; greater than 41.2 µM in assay [3]; 8.92 µM in assay [4]; greater than 100 µM in assay [5]; 27.6 µM in [6]. Besides, the TGI in assay [7] is 18.8 µM; in [8], greater than 100 µM; in assay [9] it was 13.3 µM; in assay [10], greater than 100 µM; in assay [11], greater than 100 µM; in assay [12], greater than 100 µM. The TGI in [13] was greater than 68.9 µM; in assay [14] it was greater than 100 µM; in [15] it was greater than 100 µM; in [16], 36.3 µM; in assay [17] it was 32.3 µM; in [18], 21.8 µM. This compound had a TGI in assay [19] greater than 100 µM.

Take `CC(=O)c1c(SCCN2CCOCC2)n(-c2ccccc2)c(=S)n(-c2ccccc2)c1=O`: the TGI was 57.8 µM in assay [1]; 34.6 µM in [2]; 34.4 µM in assay [3]; greater than 100 µM in assay [4]; 26 µM in [5]; 29.2 µM in assay [6]. Also, the TGI in assay [7] was 30.2 µM; in [8] it was 52.9 µM; in [9], 60.7 µM; in assay [10], greater than 100 µM; in assay [11], greater than 94.2 µM; in assay [12], greater than 54.8 µM. In addition, the TGI in [13] is greater than 76.3 µM; in assay [14], greater than 100 µM; in [15], greater than 57.6 µM; in assay [16], 26.1 µM; in [17] it was greater than 68.9 µM; in assay [18], 41.8 µM. The same compound gave a TGI in assay [19] of 27.1 µM.

With `CN(CCNC(=O)c1c[nH]c2c1ccc1ccccc12)CCNC(=O)c1c[nH]c2c1ccc1ccccc12`, the TGI amounted to 4.16 µM in [1]; 3.08 µM in assay [2]; 21.1 µM in assay [3]; 4.69 µM in assay [4]; 3.09 µM in assay [5]; 3.94 µM in [6]. Also, the TGI in [7] turned out to be 3.52 µM; in assay [8], 3.5 µM; in [9] it was 4.13 µM; in [10], 4.79 µM; in [11], 3.31 µM; in assay [12], 3.29 µM. The TGI in assay [13] is 11.1 µM; in assay [14] it was 10.5 µM; in assay [15] it was 5.83 µM; in assay [16], 8.47 µM; in [17] it was 11.7 µM; in [18], 3.24 µM. The same compound showed a TGI in assay [19] of 2.67 µM.

Regarding `CC1C2CCC3C(O)C2(CC(O)C2(O)C1CC(O)C2(C)C)CC3(C)O` (stereo not drawn), the TGI in assay [1], in assay [2], in [3], in [4], in [5] and in assay [6] was greater than 100 µM in each case. The TGI in assay [7], in [8], in assay [9], in assay [10], in assay [11] and in [12] was greater than 100 µM throughout. For the same compound, the TGI in assay [13], in assay [14], in assay [15], in assay [16], in assay [17] and in assay [18] was greater than 100 µM each time. The same compound returned a TGI in assay [19] greater than 100 µM.
